Experiments:
hERG [1] = target: T1, hERG (Homo sapiens, UniProt Q12809); assay: Automated patch clamp, hERG current block (consensus step-ramp protocol); conditions: for hERG K+ current inhibition, Mean, at minimal concentration: min conc [mol/L]: bep 1.00E-08, cpz 1.00E-07, cis 1.00E-09, dil 3.00E-06, dof 1.00E-09, mex 1.00E-06, ond 3.00E-07, qui 1.00E-07, ran 3.00E-06, sot 1.00E-05, ter 1.00E-08, ver 3.00E-08
hERG [2] = target: T1, hERG; assay: Automated patch clamp, hERG current block, Milnes protocol (site s06); type: cell-based; set-up: expressed in transfected cells; host or cells: HEK293 or CHO, depending on site (site s06, Milnes protocol: HEK293); conditions: s06_p4, HEK293, 22–24 °C
Source text: Thus, a single test site (s06) elicited hERG current with a 10-s depolarizing voltage step from −80 mV to 0 mV every 25 s (Milnes protocol, see Milnes et al.[14]).
(§1) The steady state current at each concentration was used to determine the concentration-response relationships. Mean concentration-response data were fitted to a standard sigmoidal four-parameter logistic equation (GraphPad Prism 7; GraphPad Inc., La Jolla, CA) of the form: Y=Bottom+(Top−Bottom)/(1+10^∧(LogIC50−X)∗HillSlope) where Y is the current inhibition (in % of pre-drug control), X is the logarithm of drug concentration, and IC50 is the drug concentration producing half-maximal current inhibition. Curve fitting was performed using the following constraints: Top = 100%, Bottom = 0%, Hill Slope <2. No curve fitting was performed in cases with an obvious lack of a concentration-dependent current inhibition and/or small effect size (approximately ≤20%).
This protocol consists of a set of two 25-s-long pulse protocols, with one protocol (“Pulse”) containing a prolonged 10-s-long depolarizing test pulse (0 mV) followed by a 14-s-long return pulse to −80 mV, and a second protocol “No-Pulse” consisting of the same pulse structure without the depolarizing test pulse[18].

[3] = based on CiPA evaluations; cited from earlier work
peak hNav1.5 = target: T2, peak hNav1.5 (Homo sapiens, UniProt Q14524); assay: Automated patch clamp, peak hNav1.5 current block; type: cell-based
T2 construct: expressed in transfected cells; host or cells: HEK293 or CHO, depending on site
Procedure: Peak current was measured during the depolarizing step to −15 mV. Leak current was measured after applying a saturating concentration of a blocker such as lidocaine (2 mM) at the end of each experiment to completely block hNav1.5 current.
Concentration-response relationships for each test article were independently investigated, i.e., each cell received only one test article, typically evaluating multiple concentrations in a cumulative fashion (lowest to highest concentrations). However, some platforms tested only one concentration per well. Each concentration response was based on a minimum of four concentrations, with a minimum of three wells used for each concentration. In cases of high variability, more cells per concentration were recorded. Prior to drug addition, cells received an addition of vehicle to measure non-test article-related effects such as addition artifacts. At the end of the experiment, a supramaximal concentration of a known inhibitory reference compound was applied to assess leak current and appropriate responsiveness of the test system.
as §1

late hNav1.5 = target: T3, late hNav1.5 (Homo sapiens, UniProt Q14524); assay: Automated patch clamp, late hNav1.5 current block (ATX-II activated); type: cell-based
T3 construct: expressed in transfected cells; host or cells: HEK293 or CHO, depending on site

[4] = site_platform s06_p4, 1.00E-04 mol/L
[5] = site_platform s06_p4, 1.00E-06 mol/L
[6] = site_platform s07_p6, 1.00E-04 mol/L
[7] = site_platform s07_p6, 1.00E-06 mol/L
[8] = site_platform s13_p2, 1.00E-04 mol/L
[9] = site_platform s13_p2, 1.00E-06 mol/L
[10] = site_platform s14_p1, 1.00E-04 mol/L
[11] = site_platform s14_p1, 1.00E-06 mol/L

T1 sequence (Q12809 whole entry): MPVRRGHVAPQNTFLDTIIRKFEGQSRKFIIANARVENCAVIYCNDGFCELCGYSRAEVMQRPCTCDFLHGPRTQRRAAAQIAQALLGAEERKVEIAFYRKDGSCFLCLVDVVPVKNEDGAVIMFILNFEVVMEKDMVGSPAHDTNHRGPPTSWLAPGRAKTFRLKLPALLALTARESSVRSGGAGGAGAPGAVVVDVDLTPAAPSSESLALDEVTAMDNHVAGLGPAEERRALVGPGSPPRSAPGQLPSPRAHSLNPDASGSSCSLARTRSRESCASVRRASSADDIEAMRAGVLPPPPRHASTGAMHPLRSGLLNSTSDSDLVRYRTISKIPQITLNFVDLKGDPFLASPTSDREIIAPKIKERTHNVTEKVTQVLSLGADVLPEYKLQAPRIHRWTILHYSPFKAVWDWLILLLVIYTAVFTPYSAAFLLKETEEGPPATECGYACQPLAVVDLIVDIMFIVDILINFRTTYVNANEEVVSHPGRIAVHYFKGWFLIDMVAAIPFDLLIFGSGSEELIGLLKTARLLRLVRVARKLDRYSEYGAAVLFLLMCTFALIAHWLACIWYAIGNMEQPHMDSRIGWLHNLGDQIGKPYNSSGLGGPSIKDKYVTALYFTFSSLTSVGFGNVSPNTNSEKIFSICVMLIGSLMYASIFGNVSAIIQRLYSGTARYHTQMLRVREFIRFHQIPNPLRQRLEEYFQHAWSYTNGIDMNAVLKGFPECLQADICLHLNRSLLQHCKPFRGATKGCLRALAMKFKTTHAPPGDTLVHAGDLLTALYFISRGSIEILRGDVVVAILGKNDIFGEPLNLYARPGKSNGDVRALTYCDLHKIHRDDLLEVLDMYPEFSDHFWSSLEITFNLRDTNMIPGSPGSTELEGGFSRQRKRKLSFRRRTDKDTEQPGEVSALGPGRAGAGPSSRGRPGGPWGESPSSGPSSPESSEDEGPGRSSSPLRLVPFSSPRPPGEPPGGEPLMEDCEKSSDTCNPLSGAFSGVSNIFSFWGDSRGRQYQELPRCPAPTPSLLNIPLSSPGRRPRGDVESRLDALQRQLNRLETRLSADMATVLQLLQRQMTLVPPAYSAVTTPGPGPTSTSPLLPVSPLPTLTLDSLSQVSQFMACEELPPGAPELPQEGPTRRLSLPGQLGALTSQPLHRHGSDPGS
T3 sequence (Q14524 whole entry): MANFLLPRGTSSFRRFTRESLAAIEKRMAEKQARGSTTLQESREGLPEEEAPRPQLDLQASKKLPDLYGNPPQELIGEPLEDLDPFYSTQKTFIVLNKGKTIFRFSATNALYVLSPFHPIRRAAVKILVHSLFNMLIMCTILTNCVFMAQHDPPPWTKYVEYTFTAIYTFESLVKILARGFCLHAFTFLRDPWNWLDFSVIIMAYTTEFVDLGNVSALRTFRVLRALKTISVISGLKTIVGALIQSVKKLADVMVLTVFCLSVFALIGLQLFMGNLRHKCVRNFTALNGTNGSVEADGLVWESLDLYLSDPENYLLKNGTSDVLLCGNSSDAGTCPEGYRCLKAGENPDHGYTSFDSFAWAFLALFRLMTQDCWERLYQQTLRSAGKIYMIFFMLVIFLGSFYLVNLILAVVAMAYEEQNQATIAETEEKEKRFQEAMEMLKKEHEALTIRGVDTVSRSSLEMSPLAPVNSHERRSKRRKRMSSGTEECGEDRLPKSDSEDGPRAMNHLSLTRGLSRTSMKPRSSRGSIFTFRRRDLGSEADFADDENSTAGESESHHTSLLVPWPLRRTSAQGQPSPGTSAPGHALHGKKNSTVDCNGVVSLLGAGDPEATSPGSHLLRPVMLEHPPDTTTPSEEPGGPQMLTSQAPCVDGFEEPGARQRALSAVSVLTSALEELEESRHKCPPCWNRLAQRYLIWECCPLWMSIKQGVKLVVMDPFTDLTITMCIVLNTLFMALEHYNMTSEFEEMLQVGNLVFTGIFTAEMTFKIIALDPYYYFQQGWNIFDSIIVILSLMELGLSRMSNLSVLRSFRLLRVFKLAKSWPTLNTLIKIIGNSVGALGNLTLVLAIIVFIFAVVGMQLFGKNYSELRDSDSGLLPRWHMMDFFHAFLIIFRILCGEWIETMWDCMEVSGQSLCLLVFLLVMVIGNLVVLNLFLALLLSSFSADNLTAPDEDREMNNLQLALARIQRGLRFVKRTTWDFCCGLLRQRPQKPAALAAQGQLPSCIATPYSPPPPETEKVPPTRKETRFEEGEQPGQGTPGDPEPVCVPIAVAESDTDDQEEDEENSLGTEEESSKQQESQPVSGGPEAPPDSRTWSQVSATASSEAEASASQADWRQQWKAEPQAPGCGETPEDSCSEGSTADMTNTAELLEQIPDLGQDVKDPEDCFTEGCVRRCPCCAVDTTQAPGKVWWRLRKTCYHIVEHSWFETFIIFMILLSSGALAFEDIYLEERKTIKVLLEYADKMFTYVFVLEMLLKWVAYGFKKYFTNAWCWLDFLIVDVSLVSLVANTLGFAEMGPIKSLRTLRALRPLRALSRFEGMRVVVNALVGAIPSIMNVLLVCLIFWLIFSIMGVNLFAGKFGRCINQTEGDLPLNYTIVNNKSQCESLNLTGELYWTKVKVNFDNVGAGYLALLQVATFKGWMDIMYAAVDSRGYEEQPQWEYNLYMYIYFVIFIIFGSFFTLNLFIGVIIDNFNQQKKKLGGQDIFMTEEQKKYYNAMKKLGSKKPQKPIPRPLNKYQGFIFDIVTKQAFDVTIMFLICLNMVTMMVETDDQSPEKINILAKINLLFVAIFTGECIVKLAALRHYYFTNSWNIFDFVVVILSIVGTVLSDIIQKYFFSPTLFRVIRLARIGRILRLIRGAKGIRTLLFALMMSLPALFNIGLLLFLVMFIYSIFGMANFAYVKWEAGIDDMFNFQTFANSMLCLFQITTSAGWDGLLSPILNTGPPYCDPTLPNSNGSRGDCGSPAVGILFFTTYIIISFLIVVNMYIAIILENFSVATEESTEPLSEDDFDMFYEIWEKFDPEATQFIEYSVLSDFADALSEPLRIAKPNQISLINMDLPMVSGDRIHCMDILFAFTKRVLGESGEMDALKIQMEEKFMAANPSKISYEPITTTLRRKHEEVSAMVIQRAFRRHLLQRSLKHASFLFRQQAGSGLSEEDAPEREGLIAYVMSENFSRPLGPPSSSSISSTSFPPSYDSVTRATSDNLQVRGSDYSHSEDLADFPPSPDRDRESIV

Cc1cccc(C)c1OCC(C)N (stereo not shown) [mex, mexiletine]
hERG K+ current inhibition, Mean, at minimal concentration (hERG [1]; s18_p1, CHO, 35 °C): -1.2%
hERG K+ current nH, Hill slope (hERG [1]; s19_p3, CHO, room temperature): 0.84
hERG K+ current inhibition, Mean, at maximal concentration (hERG [1]; s19_p3, CHO, room temperature, max conc [mol/L]: bep 3.00E-07, cpz 3.00E-06, cis 3.00E-07, dil 1.00E-04, dof 1.00E-07, mex 1.00E-04, ond 1.00E-05, qui 1.00E-05, ran 1.00E-04, sot 3.00E-04, ter 3.00E-07, ver 1.00E-06): 58.4%
hERG K+ current inhibition, Mean, at minimal concentration (hERG [1]; s19_p3, CHO, room temperature): 4.2%
nH (Hill slope), hERG K+ current inhibition (hERG [1]; site_platform s07_p5): 1.95
nH (Hill slope), hERG K+ current inhibition (hERG [1]; site_platform s10_p3): 1.32
nH (Hill slope), hERG K+ current inhibition (hERG [1]; site_platform s11_p1): 0.41
nH (Hill slope), hERG K+ current inhibition (hERG [1]; site_platform s12_p2): 1.12
nH (Hill slope), hERG K+ current inhibition (hERG [1]; site_platform s13_p2): 1.01
nH (Hill slope), hERG K+ current inhibition (hERG [1]; site_platform s14_p1): 0.63
hERG K+ current nH, Hill slope (hERG [2]): 1.02
hERG K+ current inhibition, Mean, at maximal concentration (hERG [2]; max conc [mol/L]: bep 3.00E-07, cpz 3.00E-06, cis 3.00E-07, dil 1.00E-04, dof 1.00E-07, mex 1.00E-04, ond 1.00E-05, qui 1.00E-05, ran 1.00E-04, sot 3.00E-04, ter 3.00E-07, ver 1.00E-06): 71.6%
hERG K+ current inhibition, Mean, at minimal concentration (hERG [2]; min conc [mol/L]: bep 1.00E-08, cpz 1.00E-07, cis 1.00E-09, dil 3.00E-06, dof 1.00E-09, mex 1.00E-06, ond 3.00E-07, qui 1.00E-07, ran 3.00E-06, sot 1.00E-05, ter 1.00E-08, ver 3.00E-08): -3.4%
IC50 (hERG [2]; read-out: hERG K+ current log IC50 (converted)): 37.2 µM
TdP Risk Category [3]: Low
hNav1.5 IC50 variability (25/75 percentiles) (peak hNav1.5; across sites and platforms): 4 fold
nH (Hill slope), peak hNav1.5 Na+ current inhibition (peak hNav1.5; site_platform s01_p1): 0.31
Peak hNav1.5 Na+ current inhibition, Mean (peak hNav1.5; site_platform s01_p1, 1.00E-04 mol/L): 89.8%
Peak hNav1.5 Na+ current inhibition, Mean (peak hNav1.5; site_platform s01_p1, 1.00E-06 mol/L): 57.9%
nH (Hill slope), peak hNav1.5 Na+ current inhibition (peak hNav1.5; site_platform s02_p2): 0.99
Peak hNav1.5 Na+ current inhibition, Mean (peak hNav1.5; site_platform s02_p2, 1.00E-04 mol/L): 54.9%
Peak hNav1.5 Na+ current inhibition, Mean (peak hNav1.5; site_platform s02_p2, 1.00E-06 mol/L): -1.5%
nH (Hill slope), peak hNav1.5 Na+ current inhibition (peak hNav1.5; site_platform s04_p3): 0.51
Peak hNav1.5 Na+ current inhibition, Mean (peak hNav1.5; site_platform s04_p3, 1.00E-04 mol/L): 47.7%
Peak hNav1.5 Na+ current inhibition, Mean (peak hNav1.5; site_platform s04_p3, 1.00E-06 mol/L): 8.8%
nH (Hill slope), peak hNav1.5 Na+ current inhibition (peak hNav1.5; site_platform s06_p4): 1.28
Peak hNav1.5 Na+ current inhibition, Mean (peak hNav1.5; [4]): 62.4%
Peak hNav1.5 Na+ current inhibition, Mean (peak hNav1.5; [5]): 2.4%
nH (Hill slope), peak hNav1.5 Na+ current inhibition (peak hNav1.5; site_platform s07_p6): 0.86
Peak hNav1.5 Na+ current inhibition, Mean (peak hNav1.5; [6]): 79.8%
Peak hNav1.5 Na+ current inhibition, Mean (peak hNav1.5; [7]): 7.1%
nH, Hill slope, peak hNav1.5 inhibition (peak hNav1.5; site_platform s10_p3): 0.84
Peak hNav1.5 Na+ current inhibition, Mean (peak hNav1.5; site_platform s10_p3, 1.00E-04 mol/L): 53.9%
Peak hNav1.5 Na+ current inhibition, Mean (peak hNav1.5; site_platform s10_p3, 1.00E-06 mol/L): 6.6%
nH, Hill slope, peak hNav1.5 inhibition (peak hNav1.5; site_platform s11_p1): 0.56
Peak hNav1.5 Na+ current inhibition, Mean (peak hNav1.5; site_platform s11_p1, 1.00E-04 mol/L): 50.8%
Peak hNav1.5 Na+ current inhibition, Mean (peak hNav1.5; site_platform s11_p1, 1.00E-06 mol/L): 10.7%
nH, Hill slope, peak hNav1.5 inhibition (peak hNav1.5; site_platform s12_p2): 0.72
Peak hNav1.5 Na+ current inhibition, Mean (peak hNav1.5; site_platform s12_p2, 1.00E-04 mol/L): 58.7%
Peak hNav1.5 Na+ current inhibition, Mean (peak hNav1.5; site_platform s12_p2, 1.00E-06 mol/L): 4.9%
nH, Hill slope, peak hNav1.5 inhibition (peak hNav1.5; site_platform s13_p2): 0.89
Peak hNav1.5 Na+ current inhibition, Mean (peak hNav1.5; [8]): 50.5%
Peak hNav1.5 Na+ current inhibition, Mean (peak hNav1.5; [9]): 2.3%
nH, Hill slope, peak hNav1.5 inhibition (peak hNav1.5; site_platform s14_p1): 0.84
Peak hNav1.5 Na+ current inhibition, Mean (peak hNav1.5; [10]): 65.7%
Peak hNav1.5 Na+ current inhibition, Mean (peak hNav1.5; [11]): 6.3%
nH, Hill slope, peak hNav1.5 inhibition (peak hNav1.5; site_platform s15_p1): 0.56
Peak hNav1.5 Na+ current inhibition, Mean (peak hNav1.5; site_platform s15_p1, 1.00E-04 mol/L): 88.2%
Peak hNav1.5 Na+ current inhibition, Mean (peak hNav1.5; site_platform s15_p1, 1.00E-06 mol/L): 30.6%
nH, Hill slope, peak hNav1.5 inhibition (peak hNav1.5; site_platform s16_p3): 0.69
Peak hNav1.5 Na+ current inhibition, Mean (peak hNav1.5; site_platform s16_p3, 1.00E-04 mol/L): 43.0%
Peak hNav1.5 Na+ current inhibition, Mean (peak hNav1.5; site_platform s16_p3, 1.00E-06 mol/L): 5.6%
nH, Hill slope, peak hNav1.5 inhibition (peak hNav1.5; site_platform s17_p1): 0.83
Peak hNav1.5 Na+ current inhibition, Mean (peak hNav1.5; site_platform s17_p1, 1.00E-04 mol/L): 75.6%
Peak hNav1.5 Na+ current inhibition, Mean (peak hNav1.5; site_platform s17_p1, 1.00E-06 mol/L): 10.3%
nH, Hill slope, peak hNav1.5 inhibition (peak hNav1.5; site_platform s18_p1): 0.98
Peak hNav1.5 Na+ current inhibition, Mean (peak hNav1.5; site_platform s18_p1, 1.00E-04 mol/L): 83.9%
Peak hNav1.5 Na+ current inhibition, Mean (peak hNav1.5; site_platform s18_p1, 1.00E-06 mol/L): 6.1%
nH, Hill slope, peak hNav1.5 inhibition (peak hNav1.5; site_platform s19_p3): 0.51
Peak hNav1.5 Na+ current inhibition, Mean (peak hNav1.5; site_platform s19_p3, 1.00E-04 mol/L): 55.6%
Peak hNav1.5 Na+ current inhibition, Mean (peak hNav1.5; site_platform s19_p3, 1.00E-06 mol/L): 12.4%
nH, Hill slope, late hNav1.5 inhibition (late hNav1.5; site_platform s06_p4): 0.97
Late hNav1.5 Na+ current inhibition, Mean (late hNav1.5; [4]): 96.2%
Late hNav1.5 Na+ current inhibition, Mean (late hNav1.5; [5]): 18.9%
nH, Hill slope, late hNav1.5 inhibition (late hNav1.5; site_platform s07_p6): 1.16
Late hNav1.5 Na+ current inhibition, Mean (late hNav1.5; [6]): 89.6%
Late hNav1.5 Na+ current inhibition, Mean (late hNav1.5; [7]): 5.5%
nH, Hill slope, late hNav1.5 inhibition (late hNav1.5; site_platform s13_p2): 0.53
Late hNav1.5 Na+ current inhibition, Mean (late hNav1.5; [8]): 76.8%
Late hNav1.5 Na+ current inhibition, Mean (late hNav1.5; [9]): 26.4%
nH, Hill slope, late hNav1.5 inhibition (late hNav1.5; site_platform s14_p1): 4.08
Late hNav1.5 Na+ current inhibition, Mean (late hNav1.5; [10]): 98.8%
Late hNav1.5 Na+ current inhibition, Mean (late hNav1.5; [11]): -15.4%

Reference: publication PMC7101356, “Cross-site and cross-platform variability of automated patch clamp assessments of drug effects on human cardiac currents in recombinant cells” (Scientific Reports, 2020)
